Reference: ChEMBL document CHEMBL1201862, “PubChem BioAssay data set” (2004)
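Assay format: 96-well plates, 48-hour exposure. GI50 = concentration required for 50% inhibition of growth.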 Activity calls are given as the source filed them. Rule as the data show it: active = GI50 up to about 1.1 µM and inactive = higher.

Experiments:
Assay in all cases: NCI-60 cell line screen, 48 h
NCI-H23 = tested on: NCI-H23
HOP-62 = tested on: HOP-62
UACC-62 = tested on: UACC-62
NCI-H522 = tested on: NCI-H522
786-0 = tested on: 786-0
OVCAR-5 = tested on: OVCAR-5
HT-29 = tested on: HT-29
A498 = tested on: A498
OVCAR-3 = tested on: OVCAR-3
HCT-15 = tested on: HCT-15
OVCAR-8 = tested on: OVCAR-8
SK-MEL-2 = tested on: SK-MEL-2
U-251 = tested on: U-251
HL-60 = tested on: HL-60
HCC 2998 = tested on: HCC 2998

O=C(N/N=C1/C(=O)N(c2ccc(Cl)cc2Cl)C(=O)C(=O)C1c1nc2ccccc2o1)c1ccccc1O (configuration not stated)
GI50 (NCI-H23): 25.7 µM (inactive)
GI50 (HOP-62): 28.7 µM (inactive)
GI50 (UACC-62): 20.4 µM (inactive)
GI50 (NCI-H522): 30.8 µM (inactive)
GI50 (786-0): 51.6 µM (inactive)
GI50 (OVCAR-5): > 100 µM (inactive)
GI50 (HT-29): 60.7 µM (inactive)
GI50 (A498): 31.3 µM (inactive)
GI50 (OVCAR-3): 21.8 µM (inactive)
GI50 (HCT-15): 37.8 µM
GI50 (OVCAR-8): 60.4 µM (inactive)
GI50 (SK-MEL-2): 41.3 µM (inactive)
GI50 (U-251): > 10 µM (inactive)

COC(=O)[C@H]1CC(=O)C=C2CCCC21 (some centres not stated)
GI50 (NCI-H23): > 100 µM (inactive)
GI50 (HOP-62): > 100 µM (inactive)
GI50 (UACC-62): > 100 µM (inactive)
GI50 (NCI-H522): > 100 µM (inactive)
GI50 (786-0): > 100 µM (inactive)
GI50 (HL-60): > 100 µM (inactive)
GI50 (HT-29): > 100 µM (inactive)
GI50 (A498): > 100 µM (inactive)
GI50 (OVCAR-3): > 100 µM (inactive)
GI50 (HCT-15): > 100 µM
GI50 (OVCAR-8): > 100 µM (inactive)
GI50 (HCC 2998): > 100 µM (inactive)
GI50 (SK-MEL-2): > 100 µM (inactive)
GI50 (U-251): > 100 µM (inactive)

O=C(N/C(=C\c1ccc(Br)cc1)c1nc2ccccc2s1)c1ccccc1
GI50 (NCI-H23): 25.5 µM (inactive)
GI50 (UACC-62): 71 µM (inactive)
GI50 (NCI-H522): 32 µM (inactive)
GI50 (786-0): > 100 µM (inactive)
GI50 (OVCAR-5): > 100 µM (inactive)
GI50 (HT-29): 69.2 µM (inactive)
GI50 (A498): 90.8 µM (inactive)
GI50 (OVCAR-3): > 100 µM (inactive)
GI50 (HCT-15): 46.1 µM
GI50 (OVCAR-8): 89.9 µM (inactive)
GI50 (SK-MEL-2): > 100 µM (inactive)
GI50 (U-251): 56 µM (inactive)

O=c1ccc2ccc(O)c3c4c(O)ccc5ccc(=O)c(c1c23)c54
GI50 (NCI-H23): 1.66 µM (inactive)
GI50 (HOP-62): 2.72 µM (inactive)
GI50 (UACC-62): 0.382 µM (active)
GI50 (NCI-H522): 1.45 µM (inactive)
GI50 (786-0): 2.31 µM (inactive)
GI50 (HL-60): 1.09 µM (active)
GI50 (HT-29): 4.27 µM (inactive)
GI50 (OVCAR-3): 0.964 µM (active)
GI50 (HCT-15): 1.26 µM
GI50 (OVCAR-8): 1.46 µM (inactive)
GI50 (SK-MEL-2): 1.45 µM (inactive)
GI50 (U-251): 1.29 µM (inactive)

COc1ccccc1-c1cc(=O)c2ccccc2[nH]1
GI50 (NCI-H23): > 100 µM (inactive)
GI50 (HOP-62): > 100 µM (inactive)
GI50 (UACC-62): 41.7 µM (inactive)
GI50 (NCI-H522): 33.9 µM (inactive)
GI50 (786-0): > 100 µM (inactive)
GI50 (HL-60): 43.8 µM (inactive)
GI50 (OVCAR-3): > 100 µM (inactive)
GI50 (HCT-15): 55.1 µM
GI50 (OVCAR-8): > 100 µM (inactive)
GI50 (HCC 2998): 72.6 µM (inactive)
GI50 (U-251): > 100 µM (inactive)

C=C1C(=O)OC2(C)C3CCC(C3)C12 (configuration not stated)
GI50 (NCI-H23): 30.8 µM (inactive)
GI50 (HOP-62): > 100 µM (inactive)
GI50 (UACC-62): 63.8 µM (inactive)
GI50 (NCI-H522): 21.7 µM (inactive)
GI50 (786-0): 47.9 µM (inactive)
GI50 (OVCAR-5): > 100 µM (inactive)
GI50 (HL-60): 19.9 µM (inactive)
GI50 (HT-29): 34.9 µM (inactive)
GI50 (OVCAR-3): 53.5 µM (inactive)
GI50 (HCT-15): 60.7 µM
GI50 (OVCAR-8): 36 µM (inactive)
GI50 (HCC 2998): 66.1 µM (inactive)
GI50 (SK-MEL-2): 39.4 µM (inactive)
GI50 (U-251): > 100 µM (inactive)

COC(=O)C1(C)C=C(Nc2ccccc2)C(=O)N1c1ccccc1 (configuration not stated)
GI50 (NCI-H23): > 100 µM (inactive)
GI50 (HOP-62): > 100 µM (inactive)
GI50 (UACC-62): 99.5 µM (inactive)
GI50 (NCI-H522): > 100 µM (inactive)
GI50 (786-0): > 100 µM (inactive)
GI50 (OVCAR-5): > 100 µM (inactive)
GI50 (HL-60): > 100 µM (inactive)
GI50 (HT-29): > 100 µM (inactive)
GI50 (OVCAR-3): > 100 µM (inactive)
GI50 (OVCAR-8): > 100 µM (inactive)
GI50 (HCC 2998): > 100 µM (inactive)
GI50 (SK-MEL-2): > 100 µM (inactive)
GI50 (U-251): > 100 µM (inactive)

O=C(CSC(=S)N1CCOCC1)Nc1nc2c(s1)CCCC2
GI50 (NCI-H23): 97.7 µM (inactive)
GI50 (HOP-62): > 100 µM (inactive)
GI50 (NCI-H522): 27.8 µM (inactive)
GI50 (786-0): 90.2 µM (inactive)
GI50 (OVCAR-5): > 100 µM (inactive)
GI50 (HL-60): 27.7 µM (inactive)
GI50 (HT-29): > 100 µM (inactive)
GI50 (A498): > 100 µM (inactive)
GI50 (OVCAR-3): 51.9 µM (inactive)
GI50 (HCT-15): > 100 µM
GI50 (OVCAR-8): > 100 µM (inactive)
GI50 (HCC 2998): 24.1 µM (inactive)
GI50 (SK-MEL-2): > 100 µM (inactive)
GI50 (U-251): > 100 µM (inactive)

C=CCC1(C)CCCCC1(O)C[S+]([O-])c1ccccc1 (configuration not stated)
GI50 (HOP-62): > 100 µM (inactive)
GI50 (UACC-62): > 100 µM (inactive)
GI50 (NCI-H522): > 100 µM (inactive)
GI50 (786-0): > 100 µM (inactive)
GI50 (OVCAR-5): > 100 µM (inactive)
GI50 (HL-60): 54.5 µM (inactive)
GI50 (HT-29): > 100 µM (inactive)
GI50 (A498): > 100 µM (inactive)
GI50 (OVCAR-3): > 100 µM (inactive)
GI50 (HCT-15): > 100 µM
GI50 (OVCAR-8): > 100 µM (inactive)
GI50 (HCC 2998): > 100 µM (inactive)
GI50 (U-251): > 100 µM (inactive)

C=C[C@@H](C)[C@]1(C(=O)OC)CCCC12OCCO2
GI50 (HOP-62): > 100 µM (inactive)
GI50 (UACC-62): > 100 µM (inactive)
GI50 (NCI-H522): 82.2 µM (inactive)
GI50 (786-0): 63.8 µM (inactive)
GI50 (OVCAR-5): > 100 µM (inactive)
GI50 (HL-60): > 100 µM (inactive)
GI50 (HT-29): > 100 µM (inactive)
GI50 (A498): > 100 µM (inactive)
GI50 (OVCAR-3): > 100 µM (inactive)
GI50 (HCT-15): 94.2 µM
GI50 (OVCAR-8): > 100 µM (inactive)
GI50 (HCC 2998): > 100 µM (inactive)
GI50 (SK-MEL-2): > 100 µM (inactive)
GI50 (U-251): > 100 µM (inactive)

N#CCCN(CCC#N)c1ccc(/C=N\c2nc(-c3ccccc3)cs2)cc1
GI50 (NCI-H23): > 100 µM (inactive)
GI50 (HOP-62): 84.3 µM (inactive)
GI50 (UACC-62): > 100 µM (inactive)
GI50 (NCI-H522): 49.3 µM (inactive)
GI50 (786-0): > 100 µM (inactive)
GI50 (OVCAR-5): > 100 µM (inactive)
GI50 (HL-60): > 100 µM (inactive)
GI50 (HT-29): > 100 µM (inactive)
GI50 (A498): > 100 µM (inactive)
GI50 (OVCAR-3): > 100 µM (inactive)
GI50 (HCT-15): > 100 µM
GI50 (OVCAR-8): > 100 µM (inactive)
GI50 (SK-MEL-2): > 100 µM (inactive)

COc1cc(O)c(C(=O)CC(C)=O)c(OC)c1
GI50 (NCI-H23): > 100 µM (inactive)
GI50 (HOP-62): > 100 µM (inactive)
GI50 (UACC-62): > 100 µM (inactive)
GI50 (NCI-H522): > 100 µM (inactive)
GI50 (786-0): > 100 µM (inactive)
GI50 (OVCAR-5): > 100 µM (inactive)
GI50 (HL-60): > 100 µM (inactive)
GI50 (HT-29): > 100 µM (inactive)
GI50 (OVCAR-3): > 100 µM (inactive)
GI50 (OVCAR-8): > 100 µM (inactive)
GI50 (HCC 2998): > 100 µM (inactive)
GI50 (SK-MEL-2): > 100 µM (inactive)
GI50 (U-251): > 100 µM (inactive)

O=S(=O)(O)SC/C=C\CSS(=O)(=O)O
GI50 (NCI-H23): > 100 µM (inactive)
GI50 (HOP-62): > 100 µM (inactive)
GI50 (UACC-62): > 100 µM (inactive)
GI50 (NCI-H522): > 100 µM (inactive)
GI50 (786-0): > 100 µM (inactive)
GI50 (OVCAR-5): > 100 µM (inactive)
GI50 (HL-60): > 100 µM (inactive)
GI50 (HT-29): > 100 µM (inactive)
GI50 (A498): > 100 µM (inactive)
GI50 (OVCAR-3): > 100 µM (inactive)
GI50 (HCT-15): 65.8 µM
GI50 (OVCAR-8): > 100 µM (inactive)
GI50 (HCC 2998): > 100 µM (inactive)
GI50 (U-251): 61.2 µM (inactive)

O=S(O)CCCSSCCCCSSCCCS(=O)O
GI50 (NCI-H23): > 100 µM (inactive)
GI50 (HOP-62): > 100 µM (inactive)
GI50 (UACC-62): > 100 µM (inactive)
GI50 (NCI-H522): > 100 µM (inactive)
GI50 (786-0): > 100 µM (inactive)
GI50 (OVCAR-5): > 100 µM (inactive)
GI50 (HT-29): > 100 µM (inactive)
GI50 (A498): > 100 µM (inactive)
GI50 (OVCAR-3): > 100 µM (inactive)
GI50 (HCT-15): > 100 µM
GI50 (OVCAR-8): > 100 µM (inactive)
GI50 (HCC 2998): > 100 µM (inactive)
GI50 (SK-MEL-2): > 100 µM (inactive)
GI50 (U-251): > 100 µM (inactive)

O=[N+]([O-])c1cccc(Nc2nc(Cl)nc(Cl)n2)c1
GI50 (NCI-H23): > 100 µM (inactive)
GI50 (HOP-62): > 100 µM (inactive)
GI50 (UACC-62): > 100 µM (inactive)
GI50 (NCI-H522): > 100 µM (inactive)
GI50 (786-0): > 100 µM (inactive)
GI50 (OVCAR-5): > 100 µM (inactive)
GI50 (HT-29): > 100 µM (inactive)
GI50 (OVCAR-3): > 100 µM (inactive)
GI50 (HCT-15): > 100 µM
GI50 (OVCAR-8): > 100 µM (inactive)
GI50 (HCC 2998): > 100 µM (inactive)
GI50 (SK-MEL-2): > 100 µM (inactive)
GI50 (U-251): > 100 µM (inactive)

Oc1ccc2c(c1)CC[N+]1=C2CCC2CCCC21 (configuration not stated) [QUINDONIUM BROMIDE]
GI50 (NCI-H23): > 100 µM (inactive)
GI50 (UACC-62): > 100 µM (inactive)
GI50 (786-0): > 100 µM (inactive)
GI50 (OVCAR-5): > 100 µM (inactive)
GI50 (HT-29): > 100 µM (inactive)
GI50 (OVCAR-3): > 100 µM (inactive)
GI50 (HCT-15): > 100 µM
GI50 (OVCAR-8): > 100 µM (inactive)
GI50 (HCC 2998): > 100 µM (inactive)
GI50 (SK-MEL-2): > 100 µM (inactive)
